The subject of one data set is A375 cells. Description: A375 subcutaneous tumors, 10 or 20 mg/kg study. It counts as in vivo, NCR nude mice. Conditions: 10 or 20 mg/kg intraperitoneally; for tumor growth (calculated tumor volumes): to day 24. As for the experimental part:
A375 cells were subcutaneously implanted in the flanks of NCR nude mice. After tumors had formed, the animals were treated intraperitoneally with 10 or 20 mg/kg of CP-dn-CEBPB, CP-dn-CEBPD or vehicle as indicated in the schema shown in FIG. 37A. Animal weight was monitored (FIG. 37B). Tumor sizes were measured and volumes calculated on each day of injection. […] FIG. 37D compares calculated individual and mean tumor volumes for vehicle, CP-dn-CEBPB and CP-dn-CEBPD treated animals on day 24.

For data set [1], the system named is MCF10A non-cancer human breast epithelial cells. As to the kind of experiment: Morphology after peptide treatment, MCF10A. It counts as cell-based. Conditions: 5 to 6 days, 20 μM or 50; stock without BSA. As for the experimental part: Stock solutions of the peptides were prepared in buffer without added bovine serum albumin (BSA).
Data set [2] has as its system T98G cells. Description: Combination with chloroquine, cell number, T98G. The data set is classed as cell-based. As to conditions: 5 μM or 10 μM chloroquine and 3 μM or 10 μM peptide, 6 days. How it is done: (§1) Replicate cultures of T98G, MDA-MB 231, and HCT116 cells were treated with 5 μM or 10 μM chloroquine and 3 μM or 10 μM CP-dn-CEBPB and CP-dn-CEBPD peptides, maintained for 6 days, and then assessed for cell number. The bar graphs of FIGS. 29A (T98G, CP-dn-CEBPB), 29C (T98G, CP-dn-CEBPBD, 29E (MDA-MB-231, CP-dn-CEBPBD), 29G (MDA-MB-231, CP-dn-CEBPD), 29I (HCT116, CP-dn-CEBPBB), and 26K (HCT116, CP-dn-CEBPBD) show relative cell numbers for each condition as compared to untreated controls. The line graphs of FIGS. 26B (T98G, CP-dn-CEBPB), 26D (T98G, CP-dn-CEBPBD), 26F (MDA-MB-231, CP-dn-CEBPB), 26H (MDA-MB-231, CP-dn-CEBPD), 26J (HCT116, CP-dn-CEBPB), and 26L (HCT116 CP-dn-CEBPBD) show the response as normalized in each case so that 100 represents the relative number of surviving cells that received the indicated level of chloroquine, but no peptide treatment. The results ranged from near-additive (HCT116 cells, CI=0.92±0.08 for CP-dn-CEBPB and 0.87±0.07 for CP-dn-CEBPD) to apparent synergy (T98G, CI=0.56±0.06 for CP-dn-CEBPB and 0.75±0.03 for CP-dn-CEBPD; MDA-MB-261, CI=0.59±0.11 for CP-dn-CEBPB and 0.47±0.05 for CP-dn-CEBPD).

Data set [3] deals with MDA-MB 231 cells. Description: Colony forming activity in soft agar, MDA-MB 231. It counts as cell-based. As to conditions: 6 days; doses 0.05, 0.5 and 5 μM. How it is done:
(§2) T98G (FIG. 21A), MDA-MB 231 (FIG. 21B), and HCT116 (FIG. 21C) cells were exposed to CP-DN-CEBPB and CP-DN-CEBPD for 6 days at doses of 0.05 μM 0.5 μM, and 5 μM while growing in soft agar. Growth was inhibited by does as low as 0.5 μM. T98G (FIG. 21D), MDA-MB 231 (FIG. 21E), and HCT116 (FIG. 21F) cells were exposed to CP-DN-CEBPB and CP-DN-CEBPD for 6 days at doses of 0.05 μM 0.5 μM, and 5 μM while growing on culture plates. Growth was inhibited by does as low as 0.5 μM.

Another data set deals with HCT116 cells. As to the kind of experiment: Combination with chloroquine, cell number, HCT116. It counts as cell-based. Conditions: 5 μM or 10 μM chloroquine and 3 μM or 10 μM peptide, 6 days. As for the experimental part: as §1
Data set [4] concerns T98G cells. As to the kind of experiment: Colony forming activity on culture plates, T98G. It counts as cell-based. Conditions: 6 days; doses 0.05, 0.5 and 5 μM. As for the experimental part: as §2
For data set [5], the system named is MDA-MB 231 cells. As to the kind of experiment: Combination with chloroquine, cell number, MDA-MB 231. The data set is classed as cell-based. Conditions: 5 μM or 10 μM chloroquine and 3 μM or 10 μM peptide, 6 days. How it is done: as §1
A further data set has as its system A549 lung cancer cells. As to the kind of experiment: Cell number after peptide treatment, A549. The data set is classed as cell-based. Conditions: 6 days, 0 μM to 50 μM; stock without BSA. As for the experimental part: Replicate cultures of MDA-MB-468 breast cancer cells, A549 lung cancer cells and 293T transformed embryonic kidney cells were exposed to CP-DN-CEBPB or CP-DN-CEBPD, for 6 days at doses of 0 μM to 50 μM. […] Stock solutions of the peptides were prepared in buffer without added bovine serum albumin (BSA).

No end group written: not given here.

For “RQIKIWFQNRRMKWKKLVELSAENEKLHQRVEQLTRDLAGLRQFFK [CP-DN-CEBPD]”, the “side effects (animal weight monitored)” value in the data set with A375 cells was “no apparent side effects”. In addition, in the data set on A375 cells, the “tumor growth (calculated tumor volumes)” value is recorded as “suppressed tumor growth”. For the same sequence, the “morphology of MCF10A cells” value in data set [1] was “did not affect the morphology”. Besides, the CI with chloroquine with T98G cells [2] is listed as 0.75±0.03; in the data set with HCT116 cells it was 0.87±0.07; in the data set on MDA-MB 231 cells [5] it was 0.47±0.05. Moreover, in the data set with MDA-MB 231 cells [3], the “lowest dose at which growth was inhibited, soft agar” value stood at 0.5 µM. In addition, the “lowest dose at which growth was inhibited, culture plates” value in the data set with T98G cells [4] amounted to 0.5 µM. For the same sequence, the “number of A549 cells” value in the data set on A549 lung cancer cells is “dose-dependent decrease in the number”.
Regarding “RQIKIWFQNRRMKWKKLETQHKVLELTAENERLQKKVEQLSRELSTLRNLFKQL [CP-DN-CEBPB]”, in the data set on A375 cells, the “side effects (animal weight monitored)” value is “no apparent side effects”. In addition, in the data set on A375 cells, the “tumor growth (calculated tumor volumes)” value is given as “suppressed tumor growth”. In addition, the “morphology of MCF10A cells” value in data set [1] is on record as “did not affect the morphology”. Further, the CI with chloroquine is given as 0.56±0.06 in the data set on T98G cells [2], 0.92±0.08 in the data set on HCT116 cells and 0.59±0.11 with MDA-MB 231 cells [5]. Also, the “lowest dose at which growth was inhibited, soft agar” value in the data set with MDA-MB 231 cells [3] was found to be 0.5 µM. The “lowest dose at which growth was inhibited, culture plates” value in the data set with T98G cells [4] was found to be 0.5 µM. In addition, the “number of A549 cells” value with A549 lung cancer cells was “dose-dependent decrease in the number”.

Values taken from patent US12428455B2, “Dominant negative CEBPB and CEBPD proteins and methods of use for decreasing viability of neoplastic cells” (The Trustees of Columbia University in the City of New York, priority 2018, dated 2025).
